# Measured values: article PMC6017121, “New Thiazoline-Tetralin Derivatives and Biological Activity Evaluation” (Molecules : A Journal of Synthetic Chemistry and Natural …, 2018)
# What was measured:
# [1] = test system: human breast adenocarcinoma cell line (MCF-7); assay: MTT cytotoxicity assay on MCF-7; type: cell-based
# Protocol: (§1) This is a colorimetric assay that measures the reduction of 3-(4,5-dimethylthiazol-2-yl)-2,4,diphenyltetrazolium bromide (MTT) by mitochondria. All final compounds were tested against human breast adenocarcinoma cell line (MCF-7), human lung carcinoma cell line (A549) and mouse embryooblast cell line (NIH/3T3) to determine their cytotoxic profile. Cancer cells were cultured in RPMI medium (Hyclone, Thermo Scientific, Waltham, MA, USA) at 37 °C in a humidified atmosphere of 95% air and 5% CO2. The studied cells were situated at 2 × 10^4 cells into each well of 96-well microtiter tissue culture plates (Nunc, Denmark) and incubated for 24 h. After that, test compounds were dissolved in DMSO and added to culture wells at varying concentrations (85–1000 µM). After a 24 h incubating period, […] MTT solution (5 mg/mL MTT powder in PBS) was added to each well and the cells were incubated for 4 h at 37 °C. The purple formazan crystals produced were dissolved in DMSO and the absorbance was read by ELISA reader (OD570 nm). The percent values of cell proliferations were calculated relative to controls, whose cell proliferations were accepted as 100% [47].
# [2] = test system: human lung carcinoma cell line (A549); assay: MTT cytotoxicity assay on A549; type: cell-based
# Protocol: as §1
# [3] = test system: A549 cells; assay: Annexin V-FITC/propidium iodide flow cytometry on A549; type: cell-based, human; details: A549 cell line, IC50 concentration
# Protocol: Evaluation of apoptosis was carried out through the Annexin V-FITC Apoptosis Detection Kit from BD, Pharmingen, according to the manufacturer’s instruction. […] Then cells were rinsed with cold water twice and resuspended in Annexin V-FITC binding buffer at a concentration of 1 × 10^6 cells/mL. […] of Annexin V-FITC was used to stain the cells. After 15 min of incubation at 25 °C, the cell suspension was centrifugated for 5 min and cells were resuspended in Annexin V-FITC binding buffer. Propidium iodide ([…]) was added and the tubes were situated on ice and away from light. The fluorescence was measured using a flow cytometer. The results were analyzed by using FCSExpress software and represented as percentage of normal and apoptotic cells at various stages. […] The four areas in the diagrams stand for necrotic cells (Q1, positive for PI and negative for annexin/FITC, left square on the top), live cells (Q3, negative for annexin and PI, left square at the bottom), late apoptotic or necrotic cells (Q2, positive for annexin and PI, right square on the top) and apoptotic cells (Q4, negative for PI and positive for annexin, right square at the bottom), respectively. The experiment was repeated three times.
# [4] = test system: mouse embryoblast cell line (NIH/3T3); assay: MTT cytotoxicity assay on NIH/3T3 (healthy cells); type: cell-based; details: NIH3T3, 24 h incubation
# Protocol: as §1
# [5] = molecular target: acetylcholinesterase (AChE) (Homo sapiens, UniProt P22303); assay: biochemical; details: 80 µg/mL (~160 µM)
# Sequence of acetylcholinesterase (AChE) (P22303 32-614, species assumed): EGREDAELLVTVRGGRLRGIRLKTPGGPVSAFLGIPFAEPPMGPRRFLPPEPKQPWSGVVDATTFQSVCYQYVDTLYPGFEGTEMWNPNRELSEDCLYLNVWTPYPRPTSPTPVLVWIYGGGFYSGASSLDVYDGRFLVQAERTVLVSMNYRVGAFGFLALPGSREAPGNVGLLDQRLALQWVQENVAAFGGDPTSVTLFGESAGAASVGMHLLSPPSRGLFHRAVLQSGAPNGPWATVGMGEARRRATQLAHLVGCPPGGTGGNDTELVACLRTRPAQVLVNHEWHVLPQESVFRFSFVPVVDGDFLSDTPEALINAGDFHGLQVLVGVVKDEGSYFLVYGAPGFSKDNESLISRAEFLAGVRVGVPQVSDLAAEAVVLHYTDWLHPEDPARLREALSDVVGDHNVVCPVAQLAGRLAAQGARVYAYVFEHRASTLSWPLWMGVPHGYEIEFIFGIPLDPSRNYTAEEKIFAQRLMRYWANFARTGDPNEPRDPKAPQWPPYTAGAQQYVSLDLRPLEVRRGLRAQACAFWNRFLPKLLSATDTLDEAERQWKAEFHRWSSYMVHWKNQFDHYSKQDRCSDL
# Protocol: (§2) In order to determine the acetyl- and butyrylcholinesterase enzyme inhibitions, experiments were carried out by making some changes in the method developed by Ellman. Samples were prepared by dissolving in the appropriate solvent. Adding 20 μL enzyme solution (AChE or BuChE, 1 U/mL) and 10 μL sample solution to 2.4 mL buffer solution and it was incubated for 15 min at 37 °C. After incubation, 50 μL DTNB and 75 mM ATCI solution or 20 μL of 25 mM BTCI solution were added and allowed the mixture to incubate at room temperature for 30 min. For the control group, only 10 μL of solvent was added instead of the sample solution provided all protocols are the same. […] Experiments were run in triplicate. The inhibition fractions of AChE […] BuChE enzymes were calculated using the following equation:I(%) = 100 − ([…]) × 100
# [6] = molecular target: butyrylcholinesterase (BuChE) (Homo sapiens, UniProt P06276); assay: biochemical; details: 80 µg/mL (~160 µM)
# Sequence of butyrylcholinesterase (BuChE) (P06276 29-602): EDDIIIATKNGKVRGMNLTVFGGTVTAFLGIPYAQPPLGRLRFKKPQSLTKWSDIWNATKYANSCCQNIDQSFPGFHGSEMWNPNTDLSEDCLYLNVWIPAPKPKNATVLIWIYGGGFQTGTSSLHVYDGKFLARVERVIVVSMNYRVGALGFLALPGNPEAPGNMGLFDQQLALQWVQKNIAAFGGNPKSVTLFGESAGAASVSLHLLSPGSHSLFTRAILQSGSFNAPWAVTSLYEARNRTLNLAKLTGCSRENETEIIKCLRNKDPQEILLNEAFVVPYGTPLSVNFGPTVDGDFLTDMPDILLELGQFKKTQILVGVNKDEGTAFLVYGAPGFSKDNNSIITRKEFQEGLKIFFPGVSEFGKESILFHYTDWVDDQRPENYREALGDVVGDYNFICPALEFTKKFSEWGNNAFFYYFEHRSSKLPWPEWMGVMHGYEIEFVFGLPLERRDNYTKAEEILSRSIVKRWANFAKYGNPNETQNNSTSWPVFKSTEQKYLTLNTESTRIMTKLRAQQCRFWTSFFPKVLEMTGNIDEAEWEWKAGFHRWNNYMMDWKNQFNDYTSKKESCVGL
# Protocol: as §2
# [7] = test system: A549 cells; assay: DNA synthesis inhibition (BrdU) on A549; details: Homo sapiens, A549, 4 h, read-out: DNA synthesis inhibition on A549 at IC50, IC50 concentration (4h 48.6 μM; cisplatin 108.3 μM)
# Protocol: The 5-bromo-2′-deoxy-uridine (BrdU) cell proliferation assay [48] was used to detect the proliferation of A549 and C6 cells. […] At the end of each day, the cells were labelled with 10 mL BrdU solution for 2 h and then fixed. Anti-BrdU-POD (100 mL) was added and incubated for 90 min. Finally, microtiter plates were washed with phosphate buffered saline (PBS) three times and the cells were incubated with substrate solution until the color was sufficient for photometric detection. […] The growth percentage was evaluated spectrophotometrically versus untreated controls with used cell viability of growth assay. Results for each spectrophotometrical measure were noticed as percent of growth inhibition. All experiments were done in triplicates.
# Mean percent absorbance of untreated control cells were assumed 0%. […] Data points represent means for three independent wells ± SD. p < 0.05.
structure (smiles),measurement,setting,value
"O=C(COc1ccc2c(c1)CCCC2)N/N=c1\scc(-c2ccc(F)cc2)n1-c1ccccc1 [Compound 4h, N′-[3-Phenyl-4-(4-florophenyl)thiazole-2(3H)-ylidene]-2-[(5,6,7,8-tetrahydronaphthalen-2-yl)oxy]acetohydrazide]",IC50,"[1]; Homo sapiens, MCF7, MTT, 24 h incubation",243 ± 14.9 µM
same,SI MCF-7 (selectivity index),[1]; NIH/3T3 versus MCF-7,1.0
same,IC50,"[2]; Homo sapiens, A549, MTT, 24 h incubation",48.6 ± 6 µM
same,SI A549 (selectivity index),[2]; NIH/3T3 versus A549,5.1
same,apoptosis (early + late apoptotic cell percentage) A549,[3],over 50%
same,% Early Apoptotic,[3]; 24 h,23.7%
same,% Late Apoptotic,[3]; 24 h,26.4%
same,% Necrotic,[3]; 24 h,4.0%
same,% Viable,[3]; 24 h,45.9%
same,IC50,[4],247 ± 12.2 µM
same,inhibition at 160 µM,[5],49.9 ± 1.44%
same,inhibition at 80 µg/mL,[6],< 0%
same,inhibition at 48.6 µM,[7],50.8%
